{"source": "patent US20090023775A1", "about": "“1-[2-(4-BENZYL-4-HYDROXY-PIPERIDIN-1 -YL )-ETHYL]-3-(2-METHYL-QUINOLIN- 4-YL)- UREA AS CRYSTALLINE SULFATE SALT” (Actelion Pharmaceuticals Ltd., priority 2004, published 2009)", "key": {"[1]": {"assay": "Dynamic vapor sorption (DVS), gravimetric measurement under controlled relative humidity", "format": "physicochemical", "procedure": "X-ray diffraction patterns (XRD) were recorded on a Bruker D5000, using a Cu-Kalpha (1.5418 Å) source, a 40 kV -30 mA generator, in a range of 3 et 40° (2theta). DVS is performed as gravimetric measurement (10-30 mg of sample), at a given temperature, under controlled relative humidity. Measurements are performed on a SMS (Surface Measurement Systems) DVS 1000. First, the sample is dried (0% RH) under dry nitrogen at the experiment temperature. Then a cycle of relative humidity (RH) is applied to the sample (generally increase by steps e.g. 20, 40, 60 and 80% RH and decrease to 0% RH by the same steps). The duration of each step of RH is sufficient to reach a weight equilibrium.\nTable 2 summarizes the results of two cycles (0 to 85% relative humidity) in a DVS measurement (40° C.) of 1-[2-(4-benzyl-4-hydroxy-piperidin-1-yl)-ethyl]-3-(2-methyl-quinolin-4-yl)-urea sulfate trihydrate described in Example 1.\nTable 4 summarizes the results of three cycles (0 to 85% relative humidity) in a DVS measurement (25° C.) of 1-[2-(4-benzyl-4-hydroxy-piperidin-1-yl)-ethyl]-3-(2-methyl-quinolin-4-yl)-urea sulfate trihydrate described in Example 2."}, "[2]": {"assay": "Behaviour of the free base at higher temperature and higher humidity", "format": "physicochemical", "excerpt": "Therefore, the said compound of formula I as free base is not suitable as a pharmaceutical product since it is not easy to handle in pharmaceutical preparations. In addition, large scale production and storage of the said compound of formula I causes problems due to the properties mentioned above."}, "urotensin II receptor": {"target": "T1, urotensin II receptor (Homo sapiens, UniProt Q9UKP6)", "T1 sequence (Q9UKP6 1-389)": "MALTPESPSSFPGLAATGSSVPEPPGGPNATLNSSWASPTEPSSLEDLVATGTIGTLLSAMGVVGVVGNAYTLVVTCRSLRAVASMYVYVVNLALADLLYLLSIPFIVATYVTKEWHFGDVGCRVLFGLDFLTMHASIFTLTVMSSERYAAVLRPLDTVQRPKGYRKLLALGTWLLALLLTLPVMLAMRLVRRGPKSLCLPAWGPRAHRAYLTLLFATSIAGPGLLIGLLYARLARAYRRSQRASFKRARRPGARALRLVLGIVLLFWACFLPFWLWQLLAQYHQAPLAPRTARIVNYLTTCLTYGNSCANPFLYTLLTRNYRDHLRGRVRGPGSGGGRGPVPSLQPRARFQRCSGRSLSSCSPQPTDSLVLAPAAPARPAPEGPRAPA", "conditions": "Clozel et al., J. Pharmcol. Exp. Ther. 2004, 311, 204-212; cited from earlier work"}, "[3]": {"conditions": "DVS 40° C., Cycle 1, target RH 0.0%"}, "[4]": {"conditions": "DVS 40° C., Cycle 1, target RH 20.0%"}, "[5]": {"conditions": "DVS 40° C., Cycle 1, target RH 40.0%"}, "[6]": {"conditions": "DVS 40° C., Cycle 1, target RH 60.0%"}, "[7]": {"conditions": "DVS 40° C., Cycle 1, target RH 85.0%"}, "[8]": {"conditions": "DVS 40° C., Cycle 2, target RH 0.0%"}, "[9]": {"conditions": "DVS 40° C., Cycle 2, target RH 20.0%"}, "[10]": {"conditions": "DVS 40° C., Cycle 2, target RH 40.0%"}, "[11]": {"conditions": "DVS 40° C., Cycle 2, target RH 60.0%"}, "[12]": {"conditions": "DVS 40° C., Cycle 2, target RH 85.0%"}, "[13]": {"conditions": "higher temperature and higher humidity"}, "[14]": {"conditions": "DVS 25° C., Cycle 1, target RH 0.0%"}, "[15]": {"conditions": "DVS 25° C., Cycle 1, target RH 20.0%"}, "[16]": {"conditions": "DVS 25° C., Cycle 1, target RH 40.0%"}, "[17]": {"conditions": "DVS 25° C., Cycle 1, target RH 60.0%"}, "[18]": {"conditions": "DVS 25° C., Cycle 1, target RH 85.0%"}, "[19]": {"conditions": "DVS 25° C., Cycle 2, target RH 0.0%"}, "[20]": {"conditions": "DVS 25° C., Cycle 2, target RH 20.0%"}, "[21]": {"conditions": "DVS 25° C., Cycle 2, target RH 40.0%"}, "[22]": {"conditions": "DVS 25° C., Cycle 2, target RH 60.0%"}, "[23]": {"conditions": "DVS 25° C., Cycle 2, target RH 85.0%"}, "[24]": {"conditions": "DVS 25° C., Cycle 3, target RH 0.0%"}, "[25]": {"conditions": "DVS 25° C., Cycle 3, target RH 85.0%"}}}
{"smiles": "Cc1cc(NC(=O)NCCN2CCC(O)(Cc3ccccc3)CC2)c2ccccc2n1.O.O.O.O=S(=O)(O)O", "note": "[Example 1, 1-[2-(4-Benzyl-4-hydroxy-piperidin-1-yl)-ethyl]-3-(2-methyl-quinolin-4-yl)-urea Sulfate Trihydrate]", "values": [{"measurement": "Change In Mass (%) Desorption", "setting": "[1]; [3]", "result": "−0.02", "unit": "%"}, {"measurement": "Change In Mass (%) Sorption", "setting": "[1]; [3]", "result": 0.00, "unit": "%"}, {"measurement": "Change In Mass (%) Desorption", "setting": "[1]; [4]", "result": 9.97, "unit": "%"}, {"measurement": "Change In Mass (%) Hysteresis", "setting": "[1]; [4]", "result": 0.26, "unit": "%"}, {"measurement": "Change In Mass (%) Sorption", "setting": "[1]; [4]", "result": 9.71, "unit": "%"}, {"measurement": "Change In Mass (%) Desorption", "setting": "[1]; [5]", "result": 10.26, "unit": "%"}, {"measurement": "Change In Mass (%) Hysteresis", "setting": "[1]; [5]", "result": 0.03, "unit": "%"}, {"measurement": "Change In Mass (%) Sorption", "setting": "[1]; [5]", "result": 10.23, "unit": "%"}, {"measurement": "Change In Mass (%) Desorption", "setting": "[1]; [6]", "result": 10.40, "unit": "%"}, {"measurement": "Change In Mass (%) Hysteresis", "setting": "[1]; [6]", "result": "−0.02", "unit": "%"}, {"measurement": "Change In Mass (%) Sorption", "setting": "[1]; [6]", "result": 10.42, "unit": "%"}, {"measurement": "Change In Mass (%) Desorption", "setting": "[1]; [7]", "result": 10.68, "unit": "%"}, {"measurement": "Change In Mass (%) Sorption", "setting": "[1]; [7]", "result": 10.68, "unit": "%"}, {"measurement": "Change In Mass (%) Desorption", "setting": "[1]; [8]", "result": "−0.02", "unit": "%"}, {"measurement": "Change In Mass (%) Sorption", "setting": "[1]; [8]", "result": "−0.02", "unit": "%"}, {"measurement": "Change In Mass (%) Desorption", "setting": "[1]; [9]", "result": 9.98, "unit": "%"}, {"measurement": "Change In Mass (%) Hysteresis", "setting": "[1]; [9]", "result": 0.17, "unit": "%"}, {"measurement": "Change In Mass (%) Sorption", "setting": "[1]; [9]", "result": 9.81, "unit": "%"}, {"measurement": "Change In Mass (%) Desorption", "setting": "[1]; [10]", "result": 10.28, "unit": "%"}, {"measurement": "Change In Mass (%) Hysteresis", "setting": "[1]; [10]", "result": 0.02, "unit": "%"}, {"measurement": "Change In Mass (%) Sorption", "setting": "[1]; [10]", "result": 10.26, "unit": "%"}, {"measurement": "Change In Mass (%) Desorption", "setting": "[1]; [11]", "result": 10.42, "unit": "%"}, {"measurement": "Change In Mass (%) Hysteresis", "setting": "[1]; [11]", "result": 0.01, "unit": "%"}, {"measurement": "Change In Mass (%) Sorption", "setting": "[1]; [11]", "result": 10.42, "unit": "%"}, {"measurement": "Change In Mass (%) Desorption", "setting": "[1]; [12]", "result": 10.68, "unit": "%"}, {"measurement": "Change In Mass (%) Sorption", "setting": "[1]; [12]", "result": 10.68, "unit": "%"}]}
{"smiles": "Cc1cc(NC(=O)NCCN2CCC(O)(Cc3ccccc3)CC2)c2ccccc2n1", "note": "[formula I, 1-[2-(4-Benzyl-4-hydroxy-piperidin-1-yl)-ethyl]-3-(2-methyl-quinolin-4-yl)-urea]", "values": [{"measurement": "hygroscopicity", "setting": "[2]", "result": "hygroscopic"}, {"measurement": "agglomeration", "setting": "[2]; [13]", "result": "agglomerates to a substance cake"}, {"measurement": "colour stability", "setting": "[2]; [13]", "result": "its colour changes at higher temperature and higher humidity"}, {"measurement": "urotensin II receptor antagonist activity", "setting": "urotensin II receptor", "result": "potent urotensin II receptor antagonist"}]}
{"smiles": "Cc1cc(NC(=O)NCCN2CCC(O)(Cc3ccccc3)CC2)c2ccccc2n1.O.O.O.O=S(=O)(O)O", "note": "[Example 2, 1-[2-(4-Benzyl-4-hydroxy-piperidin-1-yl)-ethyl]-3-(2-methyl-quinolin-4-yl)-urea Sulfate Trihydrate]", "values": [{"measurement": "Change In Mass (%) Desorption", "setting": "[1]; [14]", "result": "−0.01", "unit": "%"}, {"measurement": "Change In Mass (%) Sorption", "setting": "[1]; [14]", "result": 0.00, "unit": "%"}, {"measurement": "Change In Mass (%) Desorption", "setting": "[1]; [15]", "result": 11.94, "unit": "%"}, {"measurement": "Change In Mass (%) Hysteresis", "setting": "[1]; [15]", "result": 0.57, "unit": "%"}, {"measurement": "Change In Mass (%) Sorption", "setting": "[1]; [15]", "result": 11.38, "unit": "%"}, {"measurement": "Change In Mass (%) Desorption", "setting": "[1]; [16]", "result": 12.31, "unit": "%"}, {"measurement": "Change In Mass (%) Hysteresis", "setting": "[1]; [16]", "result": 0.32, "unit": "%"}, {"measurement": "Change In Mass (%) Sorption", "setting": "[1]; [16]", "result": 12.00, "unit": "%"}, {"measurement": "Change In Mass (%) Desorption", "setting": "[1]; [17]", "result": 12.49, "unit": "%"}, {"measurement": "Change In Mass (%) Hysteresis", "setting": "[1]; [17]", "result": 0.08, "unit": "%"}, {"measurement": "Change In Mass (%) Sorption", "setting": "[1]; [17]", "result": 12.41, "unit": "%"}, {"measurement": "Change In Mass (%) Desorption", "setting": "[1]; [18]", "result": 12.70, "unit": "%"}, {"measurement": "Change In Mass (%) Sorption", "setting": "[1]; [18]", "result": 12.70, "unit": "%"}, {"measurement": "Change In Mass (%) Desorption", "setting": "[1]; [19]", "result": 0.00, "unit": "%"}, {"measurement": "Change In Mass (%) Sorption", "setting": "[1]; [19]", "result": "−0.01", "unit": "%"}, {"measurement": "Change In Mass (%) Desorption", "setting": "[1]; [20]", "result": 11.95, "unit": "%"}, {"measurement": "Change In Mass (%) Hysteresis", "setting": "[1]; [20]", "result": 0.43, "unit": "%"}, {"measurement": "Change In Mass (%) Sorption", "setting": "[1]; [20]", "result": 11.52, "unit": "%"}, {"measurement": "Change In Mass (%) Desorption", "setting": "[1]; [21]", "result": 12.32, "unit": "%"}, {"measurement": "Change In Mass (%) Hysteresis", "setting": "[1]; [21]", "result": 0.25, "unit": "%"}, {"measurement": "Change In Mass (%) Sorption", "setting": "[1]; [21]", "result": 12.06, "unit": "%"}, {"measurement": "Change In Mass (%) Desorption", "setting": "[1]; [22]", "result": 12.49, "unit": "%"}, {"measurement": "Change In Mass (%) Hysteresis", "setting": "[1]; [22]", "result": 0.07, "unit": "%"}, {"measurement": "Change In Mass (%) Sorption", "setting": "[1]; [22]", "result": 12.41, "unit": "%"}, {"measurement": "Change In Mass (%) Desorption", "setting": "[1]; [23]", "result": 12.70, "unit": "%"}, {"measurement": "Change In Mass (%) Sorption", "setting": "[1]; [23]", "result": 12.70, "unit": "%"}, {"measurement": "Change In Mass (%) Desorption", "setting": "[1]; [24]", "result": 0.08, "unit": "%"}, {"measurement": "Change In Mass (%) Sorption", "setting": "[1]; [24]", "result": 0.00, "unit": "%"}, {"measurement": "Change In Mass (%) Sorption", "setting": "[1]; DVS 25° C., Cycle 3, target RH 20.0%", "result": 11.55, "unit": "%"}, {"measurement": "Change In Mass (%) Sorption", "setting": "[1]; DVS 25° C., Cycle 3, target RH 40.0%", "result": 12.07, "unit": "%"}, {"measurement": "Change In Mass (%) Sorption", "setting": "[1]; DVS 25° C., Cycle 3, target RH 60.0%", "result": 12.40, "unit": "%"}, {"measurement": "Change In Mass (%) Desorption", "setting": "[1]; [25]", "result": 12.69, "unit": "%"}, {"measurement": "Change In Mass (%) Sorption", "setting": "[1]; [25]", "result": 12.69, "unit": "%"}]}
